Values quoted from earlier work in patent US20170027963A1, “DELIVERY OF NON-STEROIDAL AGENTS TO THE BRAIN VIA THE NASAL TRACT TO TREAT NEUROLOGICAL DISORDERS” (priority 2014, published 2017).

Details: prescribed ibuprofen for more than five years vs those who did not; US veterans aged 55 and older

CC(C)Cc1ccc(C(C)C(=O)O)cc1 (stereo not shown) [ibuprofen]
less likely to develop Alzheimer's disease: 40%
